In patent US8303999B2, “Natural extract containing xanthohumol, method for the production thereof and products produced therefrom” (Ta-Xan AG, priority 2004, dated 2012):
Values after ≈ are worked out from the molar mass of the structure shown. Like-named read-outs stand apart in the source and are kept apart here.

Assay: solubility limit of XN in aqueous solution (water)
Format: physicochemical
Conditions: read-out: solubility limit of XN in typical aqueous solutions
Procedure: For producing roasted extract comprising XN a hot aqueous extract of the ground roasted products e.g. of barley, wheat, rye as well as the corresponding malts, coffee beans or cacao beans is prepared. A hop extract comprising XN is added thereto at the beginning of the heating period. The extraction of xanthohumol in the extractions of the roasted products leads to a XN content which is by far higher than the solubility limit of XN in typical aqueous solutions. This amounts to 1.3 mg/l of XN at a water temperature of 23° C. and to 1.1 mg/l of XN at a water temperature of 8° C.

COc1cc(O)c(CC=C(C)C)c(O)c1C(=O)/C=C/c1ccc(O)cc1 [XN, xanthohumol]
solubility (water temperature of 8° C.): 1.1 µg/mL (≈ 3.1 µM) | solubility (water temperature of 23° C.): 1.3 µg/mL (≈ 3.67 µM)
